Source: the supplement of paper PMC11208160

Test: recombinant barcode read abundance after kanamycin selection (control-corrected) (log10(CPM+1)); higher = more efficient recombination; sequences stand for … in AGTGCAGAGAAAATCGGCCAGTTTTCTCTGCCTGCAGTCCGCATGCCGT…AGATTTATGCAGCGGACTGCCTTTCTCCCAAAGTGATAAACCGGACAGTATCATGGACCGGTTTTCCCGGTAATCCGTATTTGCAAGGTTGGTTTCACT; site = the 11-nt target
Procedure: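 Pooled E. coli target-specificity screen for the IS621 bridge recombinase. Each library plasmid pairs an 11-nt target (CT core) with a bridge RNA whose target-binding loop (9-nt LTG + 4-nt RTG) is reprogrammed; the rest of the 177-nt WT IS621 bridge RNA scaffold is fixed. The plasmid is co-electroporated with a WT donor plasmid; recombinase is induced with 0.1 mM IPTG and recombinants are selected on kanamycin. Recombinant barcodes are sequenced, converted to CPM, averaged over two biological replicates and corrected by the unselected control CPM. Molecule = full bridge RNA written as DNA: LTG = specificity nt 1-9, RTG = reverse complement of specificity nt 8-11, in the WT scaffold.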
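Further: IS621 recombinase and bridge RNA in Escherichia coli cells.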

Point of comparison: “AGATCTCCTTGGGTTCTAACCTGTTGCGT (site AGATCTCCTAC)”, “recombinant barcode read abundance (log10)” value 0.777. Against it:
- AGAGCTCCTTGGGTTCTAACCTGTTGCGG (site AGTGCTCCTCC) — lower, 0.196
- AGAGGACCTTGGGTTCTAACCTGTTGCCT (site AGAGGACCTAG) — higher, 2.32
- AGAGGACCTTGGGTTCTAACCTGTTGCCT (site TGAGCACCTAG) — lower, 0.213
- AGAGGTTCTTGGGTTCTAACCTGTTGCCT (site AAAGGTTCTAG) — lower, 0.141
- AGAGGTTCTTGGGTTCTAACCTGTTGCCT (site ACAGGTTCTAG) — lower, 0.0172
- AGAGGTTCTTGGGTTCTAACCTGTTGCCT (site AGAGGTTCTAG) — higher, 1.58
- AGAGGTTCTTGGGTTCTAACCTGTTGCCT (site ATAGGTTCTAG) — lower, 0.271
- AGAGTAACTTGGGTTCTAACCTGTTGCAC (site AGAGTAACTGT) — higher, 2.19
- AGAGTAACTTGGGTTCTAACCTGTTGCAC (site TCTCGTTCTTA) — lower, 0.063
- AGAGTCCCTTGGGTTCTAACCTGTTGCGG (site AGAGTCCCTCC) — higher, 3.09
- AGAGTCCCTTGGGTTCTAACCTGTTGCGG (site AGAGTCTCTCA) — lower, 0.295
- AGAGTCTCTTGGGTTCTAACCTGTTGCTG (site AGAGTCCCTCC) — lower, 0.101
- AGAGTCTCTTGGGTTCTAACCTGTTGCTG (site AGAGTCTCTCA) — within 0.2 log units, 0.78
- AGATACTCTTGGGTTCTAACCTGTTGCCT (site ACATAGTCTAG) — lower, 0.428
- AGATACTCTTGGGTTCTAACCTGTTGCCT (site AGATACTCTAG) — higher, 2.66
- AGATATACTTGGGTTCTAACCTGTTGCTT (site AGATATACTAA) — lower, 0.167
- AGATATACTTGGGTTCTAACCTGTTGCTT (site CACCTGTCTCC) — lower, 0.0796
- AGATCTCCTTGGGTTCTAACCTGTTGCGT (site TCGAAGTCTTA) — lower, 0.0154
- AGATGAGCTTGGGTTCTAACCTGTTGCGG (site AAATGGGCTCC) — lower, 0.0978
- AGATGAGCTTGGGTTCTAACCTGTTGCGG (site AGATGAGCTCC) — higher, 1.51
- AGATGTGCTTGGGTTCTAACCTGTTGCCT (site AGATGTGCTAG) — higher, 1.49
- AGATGTGCTTGGGTTCTAACCTGTTGCCT (site CACAAACCTCT) — lower, 0.181
- AGATTATCTTGGGTTCTAACCTGTTGCCT (site AGAATATCTAG) — lower, 0.21
- AGATTATCTTGGGTTCTAACCTGTTGCCT (site AGATTATCTAG) — higher, 1.32
- AGCAGCACTTGGGTTCTAACCTGTTGCCT (site AGCAGCACTAG) — within 0.2 log units, 0.731
- AGCAGCACTTGGGTTCTAACCTGTTGCCT (site CGCAGCACTAG) — lower, 0.298
- AGCAGTACTTGGGTTCTAACCTGTTGCTA (site AGCAGTACTTA) — lower, 0.299
- AGCAGTACTTGGGTTCTAACCTGTTGCTA (site TTGGAGGCTAG) — lower, 0.248
- AGCATCTCTTGGGTTCTAACCTGTTGCCG (site AGCATCTCTCG) — lower, 0.222
- AGCATCTCTTGGGTTCTAACCTGTTGCCG (site CCTTGTACTAA) — lower, 0.0503
- AGCATTCCTTGGGTTCTAACCTGTTGCCT (site AGCAGTGCTAG) — lower, 0.144
- AGCATTCCTTGGGTTCTAACCTGTTGCCT (site AGCATTCCTAG) — lower, 0.394
- AGCCCTCCTTGGGTTCTAACCTGTTGCTC (site AGCCCTCCTAA) — lower, 0.01
- AGCCCTCCTTGGGTTCTAACCTGTTGCTC (site AGCCCTCCTCA) — lower, 0.26
- AGCCCTCCTTGGGTTCTAACCTGTTGCTC (site AGCCCTCCTGA) — higher, 1.19
- AGCCCTCCTTGGGTTCTAACCTGTTGCTC (site AGCCCTCCTTA) — lower, 0.0233
- AGCGGTCCTTGGGTTCTAACCTGTTGCCT (site AGCGGACCTAG) — within 0.2 log units, 0.797
- AGCGGTCCTTGGGTTCTAACCTGTTGCCT (site AGCGGCCCTAG) — higher, 1.05
- AGCGGTCCTTGGGTTCTAACCTGTTGCCT (site AGCGGGCCTAG) — lower, 0.409
- AGCGGTCCTTGGGTTCTAACCTGTTGCCT (site AGCGGTCCTAG) — higher, 1.89
- AGCGTCGCTTGGGTTCTAACCTGTTGCCT (site AGCGTCGCTAG) — higher, 1.45
- AGCGTCGCTTGGGTTCTAACCTGTTGCCT (site TGCGTCGCTAG) — lower, 0.16
- AGCGTTGCTTGGGTTCTAACCTGTTGCCT (site AGCATTGCTAG) — lower, 0.558
- AGCGTTGCTTGGGTTCTAACCTGTTGCCT (site AGCCTTGCTAG) — lower, 0.142
- AGCGTTGCTTGGGTTCTAACCTGTTGCCT (site AGCGTTGCTAG) — higher, 1.05
- AGCGTTGCTTGGGTTCTAACCTGTTGCCT (site AGCTTTGCTAG) — lower, 0.16
- AGCTCCGCTTGGGTTCTAACCTGTTGCCT (site AGCTCCGCTAG) — lower, 0.222
- AGCTCCGCTTGGGTTCTAACCTGTTGCCT (site TGCTCGGCTAG) — lower, 0.2
- AGCTGATCTTGGGTTCTAACCTGTTGCCT (site AGCTGATCTAG) — lower, 0.261
- AGCTGATCTTGGGTTCTAACCTGTTGCCT (site CGCTGATCTAG) — lower, 0.0237
- AGCTGATCTTGGGTTCTAACCTGTTGCCT (site GGCTGATCTAG) — lower, 0.147
- AGCTGATCTTGGGTTCTAACCTGTTGCCT (site TGCTGATCTAG) — lower, 0.015
- AGCTGGGCTTGGGTTCTAACCTGTTGCGG (site AGCTGGGCTCC) — higher, 1.6
- AGCTGGGCTTGGGTTCTAACCTGTTGCGG (site AGTTGGGCTCA) — lower, 0.393
- AGCTTAGCTTGGGTTCTAACCTGTTGCCT (site AGCTTAGCTAG) — lower, 0.555
- AGCTTAGCTTGGGTTCTAACCTGTTGCCT (site AGCTTAGCTCG) — lower, 0.577
- AGCTTAGCTTGGGTTCTAACCTGTTGCCT (site AGCTTAGCTGG) — lower, 0.206
- AGCTTAGCTTGGGTTCTAACCTGTTGCCT (site AGCTTAGCTTG) — lower, 0.158
- AGGAACCCTTGGGTTCTAACCTGTTGCTA (site AGGAACCCTAA) — lower, 0.316
- AGGAACCCTTGGGTTCTAACCTGTTGCTA (site AGGAACCCTCA) — lower, 0.0647
- AGGAACCCTTGGGTTCTAACCTGTTGCTA (site AGGAACCCTGA) — lower, 0.02
- AGGAACCCTTGGGTTCTAACCTGTTGCTA (site AGGAACCCTTA) — higher, 1.44
- AGGAACCCTTGGGTTCTAACCTGTTGCTC (site AGGAACCCTAA) — lower, 0.19
- AGGAACCCTTGGGTTCTAACCTGTTGCTC (site AGGAACCCTCA) — higher, 1.05
- AGGAACCCTTGGGTTCTAACCTGTTGCTC (site AGGAACCCTGA) — lower, 0.574
